Measurements taken from US20120196853A1, “Novel Quinoline-Hepcidine Antagonists” (VIFOR (INTERNATIONAL) AG, priority 2009, published 2012).

biological target: T1, human ferroportin (Fpn-HaloTag fusion protein) (Homo sapiens, UniProt Q9NP59); test: ferroportin internalization assay (inhibition of hepcidin-induced internalization of Fpn, MDCK-FPN-HaloTag cells); format: cell-based; settings: 100 nM hepcidin, overnight, dilution series 0.04 to 40 μM
T1 construct: expressed in transfected cells
T1 sequence (Q9NP59 1-571): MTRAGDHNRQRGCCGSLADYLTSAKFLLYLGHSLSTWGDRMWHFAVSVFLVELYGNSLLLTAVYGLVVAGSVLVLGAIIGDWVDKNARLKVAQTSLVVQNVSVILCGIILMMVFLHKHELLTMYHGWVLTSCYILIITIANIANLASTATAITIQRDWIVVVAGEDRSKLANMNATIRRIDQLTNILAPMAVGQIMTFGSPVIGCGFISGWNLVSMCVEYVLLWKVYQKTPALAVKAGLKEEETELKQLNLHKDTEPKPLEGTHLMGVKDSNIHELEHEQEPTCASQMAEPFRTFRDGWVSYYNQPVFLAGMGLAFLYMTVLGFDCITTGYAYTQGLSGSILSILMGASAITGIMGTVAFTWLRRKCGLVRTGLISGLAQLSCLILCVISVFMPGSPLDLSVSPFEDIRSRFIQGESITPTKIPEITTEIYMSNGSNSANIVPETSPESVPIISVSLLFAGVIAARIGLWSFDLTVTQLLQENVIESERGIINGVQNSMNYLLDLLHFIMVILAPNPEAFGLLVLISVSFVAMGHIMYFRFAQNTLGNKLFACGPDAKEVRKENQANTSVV
Description: The hepcidin-antagonistic action of the quinoline compounds of the present invention was determined by means of the “ferroportin internalization assay” described in the following.
Organic compounds of low molecular weight which counteract the biological actions of hepcidin on its receptor, the iron exporter ferroportin (Fpn), were identified on the basis of their ability to inhibit hepcidin-induced internalization of Fpn in living cells. For this purpose, a stable cell line (Madin-Darby canine kidney, MDCK) was produced which constitutively expresses human ferroportin fused recombinantly at its C terminus with a fluorescent reporter protein (HaloTag®, Promega Corp.). The internalization of Fpn was monitored by labelling these cells with fluorescent ligands (HaloTag®-TMR, tetramethylrhodamine) which join covalently on to the HaloTag reporter gene fused with the Fpn. […] Optimized image analysis algorithms were used to ascertain the cell surface and to quantify the corresponding membrane fluorescence associated with the Fpn-HaloTag fusion protein. This assay allows a quantitative image-based analysis in order to quickly evaluate compounds which can block hepcidin-induced internalization of Fpn. This assay is a direct in vitro pendant of the in vivo action mechanism proposed for medicament candidates and is therefore suitable as an initial assay with a high throughput for identifying compounds which counteract the action of hepcidin on its receptor ferroportin.
• 7,500 cells per well (MDCK-FPN-HaloTag) were transinoculated in 50 μl DMEM medium (Dulbeccos modified Eagle medium with 10% foetal bovine serum (FBS), which contained 1% penicillin, 1% streptomycin and 450 μg/ml of G-418) in microtitre plates with 384 wells, (384 Cell carrier plates, Perkin Elmer, cat. no. 6007430), followed by incubation overnight at 37° C./5% CO2. • The volume of the medium was reduced to 10 μl, and 10 μl of 5 μM HaloTag-TMR ligands (Promega, cat. no. G 8251) were added in DMEM medium in order to stain the Fpn-HaloTag fusion protein. • 15 min incubation at 37° C./5% CO2 • The HaloTag-TMR ligand was removed and the cells were washed with fresh DMEM medium and the volume was reduced to 20 μl of DMEM medium. • 3 μl per well of a solution of the test compound (dissolved DMSO) were added ([…]). • 7 μl of […] hepcidin (Peptides International, cat. no. PLP-4392-s, 100 μM stock solution diluted in water in DMEM medium) were added per well up to a final hepcidin concentration of 100 nM. • The cells were incubated overnight at 37° C./5% CO2. • The cells were fixed by adding paraformaldehyde (PFA, Electron Microscopy Sciences, cat. no. 15710-S) directly to the cells up to a final concentration of 4%, followed by incubation at room temperature for 15-20 minutes. • The PFA solution was removed and the cells were washed with PBS (phosphate-buffered saline solution), in each case 30 μl remaining in the plate. • 20 μl of Draq5 (Biostatus, cat. no. DR 51000) were added up to a final concentration of 2.5 μM in order to stain the cell nuclei, and the plates were sealed with a foil plate seal. • The plates were analysed with the Opera Plate Imager (Opera Confocal Plate Imager, Perkin Elmer) with 7 images per well; 440 ms exposure time per image, […] focal point height.

Row | IC50 [µM] | SMILES
1 | < 50 | Oc1c(C(c2nccn2Cc2ccccc2)N2CCOCC2)ccc2cccnc12 (stereo not shown) [Example 16]
2 | < 50 | CN1CCN(C(c2ccccn2)c2ccc3cccnc3c2O)CC1 (stereo not shown) [Example 35, 7-[(4-Methyl-piperazin-1-yl)-pyridin-2-yl-methyl]-quinolin-8-ol]
3 | < 50 | CCOC(=O)N1CCN(C(c2ccccn2)c2ccc3cccnc3c2O)CC1 (stereo not shown) [Example 26, 4-[(8-Hydroxy-quinolin-7-yl)-pyridin-2-yl-methyl]-piperazine-1-carboxylic acid ethyl ester]
4 | < 50 | Oc1c(C(c2ccccn2)N2CCOCC2)cc(Cl)c2cccnc12 (stereo not shown) [Example 25, 5-Chloro-7-(morpholin-4-yl-pyridin-2-yl-methyl)-quinolin-8-ol]
5 | < 50 | NC(=O)c1ccc(C(c2ccc3cccnc3c2O)N2CCOCC2)cc1 (stereo not shown) [Example 24, 4-[(8-Hydroxy-quinolin-7-yl)-morpholin-4-yl-methyl]-benzamide]
6 | < 50 | COc1ccccc1C(c1ccc2cccnc2c1O)N1CCOCC1 (stereo not shown) [Example 14, 7-[(2-Methoxy-phenyl)-morpholin-4-yl-methyl]-quinolin-8-ol]
7 | < 50 | Oc1c(CN2CCOCC2)ccc2cccnc12 [Example 22, 7-Morpholin-4-yl-methyl-quinolin-8-ol]
8 | < 50 | Oc1c(C(Nc2ccccn2)c2cccnc2)cc(Cl)c2cccnc12 (stereo not shown) [Example 6, 5-Chloro-7-[pyridin-3-yl-(pyridin-2-ylamino)-methyl]-quinolin-8-ol]
9 | < 50 | CC1CN(C(c2ccc(F)cc2)c2ccc3cccnc3c2O)CC(C)O1 (stereo not shown) [Example 20, 7-[(2,6-Dimethyl-morpholin-4-yl)-(4-fluoro-phenyl)-methyl]-quinolin-8-ol]
10 | < 50 | Oc1c(C(c2ccccn2)N2CCCCC2)cc(Cl)c2cccnc12 (stereo not shown) [Example 32, 5-Chloro-7-(piperidin-1-yl-pyridin-2-yl-methyl)-quinolin-8-ol]
11 | < 50 | Oc1c(C(c2ccccn2)N2CCC(Cc3ccccc3)CC2)ccc2cccnc12 (stereo not shown) [Example 7, 7-[(4-Benzyl-piperidin-1-yl)-pyridin-2-yl-methyl]-quinolin-8-ol]
12 | < 50 | Oc1c(C(c2cccnc2)N2CCOCC2)ccc2cccnc12 (stereo not shown) [Example 29, 7-(Morpholin-4-yl-pyridin-3-yl-methyl)-quinolin-8-ol]
13 | < 50 | Oc1c(C(c2ccccn2)N2CCN(c3ccccn3)CC2)ccc2cccnc12 (stereo not shown) [Example 37, 7-[Pyridin-2-yl-(4-pyridin-2-yl-piperazin-1-yl)-methyl]-quinolin-8-ol]
14 | < 50 | Oc1c(C(c2ccc(Cl)cc2)N2CCOCC2)cc(Cl)c2cccnc12 (stereo not shown) [Example 2, 5-Chloro-7-[(4-chloro-phenyl)-morpholin-4-yl-methyl]-quinolin-8-ol]
15 | < 50 | Oc1c(C(c2ccccn2)N2CCN(Cc3ccccc3)CC2)ccc2cccnc12 (stereo not shown) [Example 34, 7-[(4-Benzyl-piperazin-1-yl)-pyridin-2-yl-methyl]quinolin-8-ol]
16 | < 50 | Oc1c(C(c2cccs2)N2CCOCC2)cc(Cl)c2cccnc12 (stereo not shown) [Example 39, 5-Chloro-7-(morpholin-4-yl-thiophen-2-yl-methyl)-quinolin-8-ol]
17 | < 50 | Oc1c(C(c2cnccn2)N2CCOCC2)ccc2cccnc12 (stereo not shown) [Example 15, 7-(Morpholin-4-yl-pyrazin-2-yl-methyl)-quinolin-8-ol]
18 | < 50 | Oc1c(CN2CCOCC2)cc(Cl)c2cccnc12 [Example 31, 5-Chloro-7-morpholin-4-ylmethyl-quinolin-8-ol]

Row | IC50 [µM] | SMILES
19 | < 50 | Oc1c(C(c2ccncc2)N2CCOCC2)ccc2cccnc12 (stereo not shown) [Example 30, 7-(Morpholin-4-yl-pyridin-4-yl-methyl)-quinolin-8-ol]
20 | < 50 | CN(Cc1ccccc1)C(c1ccncc1)c1ccc2cccnc2c1O (stereo not shown) [Example 19, 7-[(Benzyl-methyl-amino)-pyridin-4-yl-methyl]-quinolin-8-ol]
21 | < 50 | CC1CN(C(c2ccccn2)c2cc(Cl)c3cccnc3c2O)CC(C)O1 (stereo not shown) [Example 33]
22 | < 50 | Oc1c(C(c2ccccn2)N2CCOCC2)ccc2cccnc12 (stereo not shown) [Example 1, 7-(Morpholin-4-yl-pyridin-2-yl-methyl)-quinolin-8-ol]
23 | < 50 | OCCN1CCN(C(c2ccccn2)c2ccc3cccnc3c2O)CC1 (stereo not shown) [Example 8]
24 | < 50 | CC1CN(C(c2ccncc2)c2ccc3cccnc3c2O)CC(C)O1 (stereo not shown) [Example 18, 7-[(2,6-Dimethyl-morpholin-4-yl)-pyridin-4-yl-methyl]-quinolin-8-ol]
25 | < 50 | COc1cc(C(=O)Oc2c(CN3CCOCC3)cc(Cl)c3cccnc23)cc(OC)c1OC [Example 4, 3,4,5-Trimethoxy-benzoic acid 5-chloro-7-morpholin-4-ylmethyl-quinolin-8-yl ester]
26 | < 50 | Oc1c(C(c2ccc(Cl)cc2)N2CCOCC2)ccc2cccnc12 (stereo not shown) [Example 40, 7-[(4-Chloro-phenyl)-morpholin-4-yl-methyl]-quinolin-8-ol]
27 | < 50 | Oc1c(C(c2ccccc2Cl)N2CCOCC2)ccc2cccnc12 (stereo not shown) [Example 13, 7-[(2-Chloro-phenyl)-morpholin-4-yl-methyl]-quinolin-8-ol]
28 | < 50 | COc1ccc(C(c2ccc3cccnc3c2O)N2CCOCC2)cn1 (stereo not shown) [Example 11, 7-[(6-Methoxy-pyridin-3-yl)-morpholin-4-yl-methyl]-quinolin-8-ol]
29 | < 50 | Cc1ccc(C(c2ccc3cccnc3c2O)N2CCOCC2)cc1 (stereo not shown) [Example 9, 7-(Morpholin-4-yl-p-tolyl-methyl)-quinolin-8-ol]
30 | < 50 | Cc1ccccc1C(c1ccc2cccnc2c1O)N1CCOCC1 (stereo not shown) [Example 12, 7-(Morpholin-4-yl-o-tolyl-methyl)-quinolin-8-ol]
31 | < 50 | N#Cc1ccc(C(c2ccc3cccnc3c2O)N2CCOCC2)cc1 (stereo not shown) [Example 10, 4-[(8-Hydroxy-quinolin-7-yl)-morpholin-4-yl-methyl]-benzonitrile]
32 | < 50 | Oc1c(C(c2ccccn2)N2CCCCC2)ccc2cccnc12 (stereo not shown) [Example 27, 7-(Piperidin-1-yl-pyridin-2-yl-methyl)-quinolin-8-ol]
33 | > 100 | COc1cc(COc2c(CN3CCOCC3)ccc3cccnc23)cc(OC)c1OC [Example 23, 7-Morpholin-4-ylmethyl-8-(3,4,5-trimethoxybenzyloxy)-quinoline]
34 | < 50 | Oc1c(C(c2ccc(F)cc2)N2CCOCC2)ccc2cccnc12 (stereo not shown) [Example 28]
35 | < 50 | Oc1c(C(c2ccccn2)N2CCC(c3ccccc3F)CC2)ccc2cccnc12 (stereo not shown) [Example 36, 7-{[4-(2-Fluoro-phenyl)-piperidin-1-yl]-pyridin-2-yl-methyl}-quinolin-8-ol]
36 | < 50 | Oc1c(C(NCc2ccccc2)c2ccncc2)ccc2cccnc12 (stereo not shown) [Example 17, 7-(Benzylamino-pyridin-4-yl-methyl)-quinolin-8-ol]

same assay, conditions: 10 μM substance conc., hepcidin-induced Fpn internalization

Row | I [%] (median inhibition [%] at 10 μM substance conc.) | SMILES
37 | <50 | Oc1c(C(Nc2ccccn2)c2cccnc2)cc(Cl)c2cccnc12 (stereo not shown) [Example 6, 5-Chloro-7-[pyridin-3-yl-(pyridin-2-ylamino)-methyl]-quinolin-8-ol]
38 | <50 | Oc1c(C(c2ccc(Cl)cc2)N2CCOCC2)cc(Cl)c2cccnc12 (stereo not shown) [Example 2, 5-Chloro-7-[(4-chloro-phenyl)-morpholin-4-yl-methyl]-quinolin-8-ol]
39 | >50 | Oc1c(C(c2ccccn2)N2CCOCC2)ccc2cccnc12 (stereo not shown) [Example 1, 7-(Morpholin-4-yl-pyridin-2-yl-methyl)-quinolin-8-ol]
40 | <50 | COc1cc(C(=O)Oc2c(CN3CCOCC3)cc(Cl)c3cccnc23)cc(OC)c1OC [Example 4, 3,4,5-Trimethoxy-benzoic acid 5-chloro-7-morpholin-4-ylmethyl-quinolin-8-yl ester]
